Where “and” joins values, the source holds several entries; their conditions need not be identical. Identical values can stand only once.
Tests used:
HDAC6 = biological target: T1, HDAC6 (Homo sapiens, UniProt Q9UBN7); experiment: In vitro HDAC profiling (deacetylation assay), HDAC6; assay type: biochemical; conditions: for HDAC Activity (Fluorescent counts): Repeat1/Repeat 2
T1 construct: purchased BPS Bioscience #50051-11
T1 sequence (Q9UBN7 1-1215): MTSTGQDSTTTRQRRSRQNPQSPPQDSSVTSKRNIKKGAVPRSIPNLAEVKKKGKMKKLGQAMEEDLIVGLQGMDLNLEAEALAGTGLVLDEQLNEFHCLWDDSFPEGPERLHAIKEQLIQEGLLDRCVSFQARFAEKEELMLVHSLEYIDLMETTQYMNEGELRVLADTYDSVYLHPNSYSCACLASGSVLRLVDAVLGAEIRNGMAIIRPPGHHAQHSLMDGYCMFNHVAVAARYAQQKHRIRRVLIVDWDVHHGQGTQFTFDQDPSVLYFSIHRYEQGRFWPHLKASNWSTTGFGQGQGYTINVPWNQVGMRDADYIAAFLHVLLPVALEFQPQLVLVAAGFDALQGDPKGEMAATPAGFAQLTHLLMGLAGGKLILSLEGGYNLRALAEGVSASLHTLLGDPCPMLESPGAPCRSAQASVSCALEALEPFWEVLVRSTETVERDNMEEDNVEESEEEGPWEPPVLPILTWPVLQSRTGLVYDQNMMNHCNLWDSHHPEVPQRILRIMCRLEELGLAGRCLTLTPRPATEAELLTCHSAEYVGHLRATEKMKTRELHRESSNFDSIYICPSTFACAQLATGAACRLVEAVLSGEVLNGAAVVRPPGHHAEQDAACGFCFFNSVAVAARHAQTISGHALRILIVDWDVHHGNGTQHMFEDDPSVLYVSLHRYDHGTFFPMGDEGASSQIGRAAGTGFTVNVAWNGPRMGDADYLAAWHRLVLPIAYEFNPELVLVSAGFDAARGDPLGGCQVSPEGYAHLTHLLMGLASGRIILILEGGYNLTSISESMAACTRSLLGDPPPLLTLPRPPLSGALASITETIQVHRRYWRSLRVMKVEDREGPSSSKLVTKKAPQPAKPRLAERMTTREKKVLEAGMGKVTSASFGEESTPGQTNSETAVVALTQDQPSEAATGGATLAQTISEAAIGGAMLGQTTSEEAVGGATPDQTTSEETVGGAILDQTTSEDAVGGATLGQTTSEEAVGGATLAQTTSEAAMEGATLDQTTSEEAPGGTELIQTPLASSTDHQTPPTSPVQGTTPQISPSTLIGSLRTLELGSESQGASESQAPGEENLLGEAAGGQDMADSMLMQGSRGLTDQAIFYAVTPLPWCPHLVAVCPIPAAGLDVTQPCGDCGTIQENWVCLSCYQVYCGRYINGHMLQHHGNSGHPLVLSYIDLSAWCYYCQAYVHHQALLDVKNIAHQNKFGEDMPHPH
Protocol: (§1) HDAC profiling was performed at BPS Bioscience (San Diego, CA). All of the compounds are dissolved in DMSO. A series of dilutions of the compounds were prepared with 10% DMSO in HDAC assay buffer (#50031) and 5 µl of the dilution was added to a 50 µl reaction so that the final concentration of DMSO is 1% in all of reactions. All of the enzymatic reactions were conducted in duplicate at 37 °C for 30 mins, except that the enzyme reactions for HDAC11 were at room temperature for 3 hrs. All of the reactions were performed in a 50 µl mixture containing HDAC assay buffer, 5 µg BSA, an HDAC substrate [HDAC Substrate 3 (BPS number 50037) or HDAC Class 2a Substrate 1 (BPS number 50040)], an HDAC enzyme (#50051-11) and a test compound. After enzymatic reactions, 50 μl of HDAC Developer (#50030) was added to each well and the plate was incubated at room temperature for an additional 20 mins. Fluorescence intensity was measured at an excitation of 360 nm and an emission of 460 nm using a Tecan Infinite M1000 microplate reader. HDAC activity assays were performed in duplicates at each concentration. The fluorescent intensity data were analyzed using the computer software, Graphpad Prism. In the absence of the compound, the fluorescent intensity (Ft) in each data set was defined as 100% activity. In the absence of HDAC, the fluorescent intensity (Fb) in each data set was defined as 0% activity. The percent activity in the presence of each compound was calculated according to the following equation: %activity = (F − Fb)/(Ft − Fb), where F = the fluorescent intensity in the presence of the compound. The values of % activity versus a series of compound concentrations were then plotted using non-linear regression analysis of Sigmoidal dose-response curve generated with the equation Y = B + (T − B)/1 + 10((LogIC50 − X) × Hill Slope), where Y = percent activity, B = minimum percent activity, T = maximum percent activity, X = logarithm of compound and Hill Slope = slope factor or Hill coefficient. The IC50 value was determined by the concentration causing a half-maximal percent activity.

[1] = system: nuclear HDAC activity (Ac-H3) in NIH-3T3 cells; experiment: Acetylation assay, Western blotting for acetylated histone 3 (Ac-H3); assay type: cell-based; conditions: 48hrs, Western blot
Protocol: For analyzing acetylation status of histone 3 and tubulin, NIH3T3 cells were grown to confluence in 6-well plates. After 48hrs of treatment with indicated chemicals, cells were lysed in RIPA buffer or 1% NP40/phosphate buffered saline/protease inhibitors (SIGMA, #S8820), the lysate cleared using a microcentrifuge, then 6 × sample loading buffer (Bioland Scientific) added to the supernatant. Proteins were separated on SDS-PAGE (BioRad Criterion TGX Precast Gels). Antibodies used for analyzing the blots were: acetylated tubulin (SIGMA, #T6793), tubulin, acetyl-histone H3 (Lys23), and histone H3 (Cell Signaling Technology, #2125 S, #8848 and #9717, respectively). Chemiluminescence was detected using a Li-COR Odyssey Imaging System.

HDAC5 = biological target: T2, HDAC5 (Homo sapiens, UniProt Q9UQL6); experiment: In vitro HDAC profiling (deacetylation assay), HDAC5; assay type: biochemical; conditions: for HDAC Activity (Fluorescent counts): Repeat1/Repeat 2
T2 construct: purchased BPS Bioscience #50051-11
Protocol: as §1

[2] = in vitro deacetylation assay, duplicates

T2 sequence (Q9UQL6 whole entry): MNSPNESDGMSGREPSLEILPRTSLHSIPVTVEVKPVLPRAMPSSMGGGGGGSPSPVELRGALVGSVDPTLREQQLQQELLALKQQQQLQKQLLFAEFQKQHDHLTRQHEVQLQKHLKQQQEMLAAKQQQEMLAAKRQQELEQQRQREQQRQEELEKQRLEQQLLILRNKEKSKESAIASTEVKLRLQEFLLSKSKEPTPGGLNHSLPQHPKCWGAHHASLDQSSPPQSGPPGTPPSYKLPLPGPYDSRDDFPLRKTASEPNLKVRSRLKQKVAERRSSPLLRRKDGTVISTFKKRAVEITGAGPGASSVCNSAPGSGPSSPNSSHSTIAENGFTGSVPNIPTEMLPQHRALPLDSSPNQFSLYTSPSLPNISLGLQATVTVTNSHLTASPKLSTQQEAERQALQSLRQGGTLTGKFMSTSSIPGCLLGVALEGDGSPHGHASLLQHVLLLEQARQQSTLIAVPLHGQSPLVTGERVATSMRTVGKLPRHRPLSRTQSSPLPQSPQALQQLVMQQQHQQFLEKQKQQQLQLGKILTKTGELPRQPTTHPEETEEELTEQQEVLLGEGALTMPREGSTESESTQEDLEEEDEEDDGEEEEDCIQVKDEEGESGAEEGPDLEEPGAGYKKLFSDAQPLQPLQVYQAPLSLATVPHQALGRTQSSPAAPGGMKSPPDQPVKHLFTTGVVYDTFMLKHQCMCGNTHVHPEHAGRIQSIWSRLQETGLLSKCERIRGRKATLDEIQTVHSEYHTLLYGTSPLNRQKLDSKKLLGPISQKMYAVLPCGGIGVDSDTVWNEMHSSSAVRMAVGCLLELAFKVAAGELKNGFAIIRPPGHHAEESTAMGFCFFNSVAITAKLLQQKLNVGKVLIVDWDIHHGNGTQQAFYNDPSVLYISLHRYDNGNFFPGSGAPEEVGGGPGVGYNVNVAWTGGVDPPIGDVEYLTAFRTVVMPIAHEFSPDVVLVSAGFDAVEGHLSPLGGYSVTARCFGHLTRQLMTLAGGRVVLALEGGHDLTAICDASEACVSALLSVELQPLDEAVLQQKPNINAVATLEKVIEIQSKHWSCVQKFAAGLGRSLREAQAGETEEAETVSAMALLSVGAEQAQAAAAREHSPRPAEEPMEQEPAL

O=C(CCCCCCC(=O)Nc1ccc(Cl)c(C(=O)Nc2ccc(NC(=O)c3cc(Cl)ccc3Cl)cc2)c1)NO [IHR-SAHA]
HDAC Activity (Fluorescent counts) (HDAC6; HDAC6, WW01 0 Log nM): 17916 Fluorescent counts and 17639 Fluorescent counts | HDAC Activity (Fluorescent counts) (HDAC6; HDAC6, WW01 0.5 Log nM): 16713 Fluorescent counts and 17763 Fluorescent counts | HDAC Activity (Fluorescent counts) (HDAC6; HDAC6, WW01 1 Log nM): 14605 Fluorescent counts and 14491 Fluorescent counts | HDAC Activity (Fluorescent counts) (HDAC6; HDAC6, WW01 1.5 Log nM): 11120 Fluorescent counts and 11971 Fluorescent counts | HDAC Activity (Fluorescent counts) (HDAC6; HDAC6, WW01 2 Log nM): 7800 Fluorescent counts and 7793 Fluorescent counts | HDAC Activity (Fluorescent counts) (HDAC6; HDAC6, WW01 2.5 Log nM): 5185 Fluorescent counts and 5345 Fluorescent counts | HDAC Activity (Fluorescent counts) (HDAC6; HDAC6, WW01 3 Log nM): 4209 Fluorescent counts and 4174 Fluorescent counts | HDAC Activity (Fluorescent counts) (HDAC6; HDAC6, WW01 3.5 Log nM): 3548 Fluorescent counts and 3756 Fluorescent counts | HDAC Activity (Fluorescent counts) (HDAC6; HDAC6, WW01 4 Log nM): 3616 Fluorescent counts and 3660 Fluorescent counts | HDAC Activity (Fluorescent counts) (HDAC6; HDAC6, WW01 -0.5 Log nM): 18352 Fluorescent counts and 17865 Fluorescent counts | IC50 (HDAC6; [2]): 47 nM | HDAC inhibitory activity, accumulation of acetylated histone 3 (ratio Ac-H3 to total H3) [1]: retain HDAC inhibitory activity | HDAC Activity (Fluorescent counts) (HDAC5; HDAC5, WW01 0 Log nM): 30976 Fluorescent counts and 29141 Fluorescent counts | HDAC Activity (Fluorescent counts) (HDAC5; HDAC5, WW01 0.5 Log nM): 29969 Fluorescent counts and 29451 Fluorescent counts | HDAC Activity (Fluorescent counts) (HDAC5; HDAC5, WW01 1 Log nM): 31041 Fluorescent counts and 29968 Fluorescent counts | HDAC Activity (Fluorescent counts) (HDAC5; HDAC5, WW01 1.5 Log nM): 29717 Fluorescent counts and 27943 Fluorescent counts | HDAC Activity (Fluorescent counts) (HDAC5; HDAC5, WW01 2 Log nM): 26390 Fluorescent counts and 24587 Fluorescent counts | HDAC Activity (Fluorescent counts) (HDAC5; HDAC5, WW01 2.5 Log nM): 24330 Fluorescent counts and 23282 Fluorescent counts | HDAC Activity (Fluorescent counts) (HDAC5; HDAC5, WW01 3 Log nM): 21924 Fluorescent counts and 21338 Fluorescent counts | HDAC Activity (Fluorescent counts) (HDAC5; HDAC5, WW01 3.5 Log nM): 23432 Fluorescent counts and 20698 Fluorescent counts | HDAC Activity (Fluorescent counts) (HDAC5; HDAC5, WW01 4 Log nM): 19760 Fluorescent counts and 18237 Fluorescent counts | HDAC Activity (Fluorescent counts) (HDAC5; HDAC5, WW01 -0.5 Log nM): 30061 Fluorescent counts and 30641 Fluorescent counts | IC50 (HDAC5; [2]): > 10000 nM
